Calls of active or inactive are those of the source. The calls are words filed in the database; no cut-off is given here.
Columns and labels:
Plasmodium berghei [1] = experiment: Antimalarial activity against sporozoite stage of Plasmodium berghei infected in human HepG2 cells assessed as inhibition of sporozoite infectivity at 2 uM after 40 hrs; assay type: functional
Plasmodium berghei [2] = experiment: Antimalarial activity against sporozoite stage of Plasmodium berghei infected in human HepG2 cells assessed as inhibition of sporozoite infectivity at 10 uM after 40 hrs; assay type: functional, organism-based

Row | Compound | inhibition at 2 µM (Plasmodium berghei [1]; HepG2, 40 h) | inhibition (Plasmodium berghei [2]) | inhibition (Plasmodium berghei [1])
1 | CN1CCC(c2cc(-c3ccncc3)c(-c3ccc(F)cc3)[nH]2)CC1 | > 90% | – | –
2 | Fc1ccc(-c2[nH]c(C3CCNCC3)cc2-c2ccncc2)cc1 | – | Active | –
3 | NCCN1CCC(c2cc(-c3ccncc3)c(-c3ccc(F)cc3)[nH]2)CC1 | – | Active | –
4 | O=C(CCCC[C@@H]1SC[C@@H]2NC(=O)N[C@@H]21)NCCOCCOCCOCCOCCC(=O)NCCN1CCC(c2cc(-c3ccncc3)c(-c3ccc(F)cc3)[nH]2)CC1 | – | inactive | inactive
5 | O=C(CCCCCNC(=O)CCCC[C@@H]1SC[C@@H]2NC(=O)N[C@@H]21)NCCCCCC(=O)NCCN1CCC(c2cc(-c3ccncc3)c(-c3ccc(F)cc3)[nH]2)CC1 | – | inactive | inactive
